Results: paper PMC5594043, “CYP79 P450 monooxygenases in gymnosperms: CYP79A118 is associated with the formation of taxiphyllin in Taxus baccata” (Plant Molecular Biology, 2017)

Molecular target: T1, CYP79A118 full-length (CYP79A118-M1) (Taxus baccata, UniProt A0A288W866)
T1 construct: full-length ORF; yeast WAT11 microsomes with Arabidopsis CPR1; pESC-Leu2d
Type: biochemical
Conditions: 1 mM substrate; NADPH 1 mM; Arabidopsis CPR1 in microsomes; 75 mM sodium phosphate pH 7.0; 25 °C; product indole-3-acetaldoxime

N[C@@H](Cc1c[nH]c2ccccc12)C(=O)O [Trp, L-tryptophan]
LC-MS/MS of aldoxime product, yeast microsomes: the full-length protein as well as the truncated version showed enzymatic activity with the aromatic
